Values of other authors as cited in patent US8975284B2, “Co-solvent compositions and methods for improved delivery of dantrolene therapeutic agents” (US WorldMeds LLC, priority 2007, dated 2015).
Read-outs that look alike come from different tables or passages of the source.

Tests used:
[1] = not given; remark: listed apart in the source
[2] = not given; remark: listed apart in the source

| SMILES | pKa | pKa [1] | solubility of free acid form [2] |
| --- | --- | --- | --- |
| CC(C)(C)O [TBA, Tertiary Butyl Alcohol] | 15.37 ± 0.29 | – | – |
| O=C1CN(/N=C/c2ccc(-c3ccc([N+](=O)[O-])cc3)o2)C(=O)[N-]1.[Na+] [Dantrolene sodium, 1-[[5-(p-nitrophenyl)furfurylidene]-amino]hydantoin sodium salt] | – | 7.4 | – |
| O=C1CN(N=Cc2ccc(-c3ccc([N+](=O)[O-])cc3)o2)C(=O)N1 [dantrolene, 1-[5-(p-nitrophenyl)furfurylideneamino]hydantoin] | – | about 7.5 | totally insoluble |
